Source: PubChem BioAssay AID342 (DTP/NCI, 2004)
Where “and” joins values, the source holds several entries; their conditions need not be identical. Equal entries are not always repeated.

Tested on: Swiss mice, Sarcoma 180 sc, mean tumor weight T/C
Assay: NCI In Vivo Anticancer Drug Screen. Data for tumor model Sarcoma 180 (subcutaneous) in Swiss mice
Conditions: endpoint: mean tumor weight, higher = larger tumour
Summary of the method: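 T/C ratio: treated over vehicle-treated controls, measuring survival or tumor size in transplanted-tumor mice.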

In the case of `C[C@]12CC[C@H](O)C[C@@H]1CC[C@@H]1[C@@H]2C(=O)C[C@]2(C)C3=CC(=O)O[C@H]3C[C@@H]12`, the T/C (dose: 5.0 mg/kg/injection, schedule: Q01DX007 (sc), vehicle: steriod suspending solution) is reported as 103 % of control, the T/C (dose: 10.0 mg/kg/injection, schedule: Q01DX007 (sc), vehicle: steriod suspending solution) is reported as 97 % of control and the T/C (dose: 40.0 mg/kg/injection, schedule: Q01DX007 (sc), vehicle: steriod suspending solution) is reported as 95 % of control.

In the case of `NNc1nncc2ccccc12`, the T/C (dose: 37.5 mg/kg/injection, schedule: Q01DX007 (ip), vehicle: carboxymethylcellulose (CMC)) is reported as 116 % of control and the T/C (dose: 75.0 mg/kg/injection, schedule: Q01DX007 (ip), vehicle: carboxymethylcellulose (CMC)) is reported as 100 % of control.

In the case of `O=C1C=CC(=Nc2ccc3c(c2)C(Br)c2ccccc2-3)O1` (stereo unspecified), the T/C (dose: 16.5 mg/kg/injection, schedule: Q#A X014 (ip), vehicle: saline) is reported as 57 % of control and 75 % of control, the T/C (dose: 37.5 mg/kg/injection, schedule: Q#A X014 (ip), vehicle: saline) is reported as 100 % of control and the T/C (dose: 56.25 mg/kg/injection, schedule: Q#A X014 (ip), vehicle: saline) is reported as 73 % of control.

`CN(C)/C=N/c1nccs1` was tested, and the T/C (dose: 83.0 mg/kg/injection, schedule: Q01DX007 (ip), vehicle: saline) was 58 % of control and 70 % of control and the T/C (dose: 125.0 mg/kg/injection, schedule: Q01DX007 (ip), vehicle: saline) was 34 % of control and 43 % of control.

In the case of `CNCCc1ccccc1`, the T/C (dose: 110.0 mg/kg/injection, schedule: Q01DX007 (ip), vehicle: saline) is reported as 77 % of control.

`CO[C@@]12[C@H](COC(N)=O)C3=C(C(=O)C(C)=C(N)C3=O)N1C[C@@H]1N[C@@H]12` was tested, and the T/C (dose: 0.12 mg/kg/injection, schedule: Q#A X014 (ip), vehicle: carboxymethylcellulose (CMC)) was 113 % of control, the T/C (dose: 0.25 mg/kg/injection, schedule: Q#A X014 (ip), vehicle: carboxymethylcellulose (CMC)) was 73 % of control and the T/C (dose: 0.5 mg/kg/injection, schedule: Q#A X014 (ip), vehicle: carboxymethylcellulose (CMC)) was 57 % of control. The T/C (dose: 1.5 mg/kg/injection, schedule: Q#A X014 (ip), vehicle: carboxymethylcellulose (CMC)) was 39 % of control, the T/C (dose: 2.0 mg/kg/injection, schedule: Q#A X014 (ip), vehicle: carboxymethylcellulose (CMC)) was 17 % of control and the T/C (dose: 262.0 micrograms/kg/injection, schedule: Q01DX007 (ip), vehicle: carboxymethylcellulose (CMC)) was 69 % of control. The T/C (dose: 525.0 micrograms/kg/injection, schedule: Q01DX007 (ip), vehicle: carboxymethylcellulose (CMC)) was 98 % of control, the T/C (dose: 1050.0 micrograms/kg/injection, schedule: Q01DX007 (ip), vehicle: carboxymethylcellulose (CMC)) was 84 % of control and the T/C (dose: 2100.0 micrograms/kg/injection, schedule: Q01DX007 (ip), vehicle: carboxymethylcellulose (CMC)) was 49 % of control.

For `C[C@H]1C[C@@H]2[C@H](C(=O)C[C@@]3(C)[C@H]2CC[C@]3(O)C(=O)CO)[C@@]2(C)C=CC(=O)C=C12`, the T/C (dose: 221.0 mg/kg/injection, schedule: Q01DX007 (sc), vehicle: steriod suspending solution) was 41 % of control, the T/C (dose: 330.0 mg/kg/injection, schedule: Q01DX007 (sc), vehicle: steriod suspending solution) was 43 % of control and 65 % of control and the T/C (dose: 739.0 mg/kg/injection, schedule: Q01DX007 (sc), vehicle: steriod suspending solution) was 13 % of control.

`CC1OC2CC(=O)OC2C2=C1C(=O)c1c(O)c3c(c(O)c1C2=O)C1CC(O)C3(O)C(C)O1` (stereo unspecified) was tested, and the T/C (dose: 0.01 mg/kg/injection, schedule: Q01DX007 (ip), vehicle: saline) was 114 % of control, the T/C (dose: 0.03 mg/kg/injection, schedule: Q01DX007 (ip), vehicle: saline) was 112 % of control and the T/C (dose: 0.1 mg/kg/injection, schedule: Q01DX007 (ip), vehicle: saline) was 112 % of control. The T/C (dose: 0.2 mg/kg/injection, schedule: Q01DX007 (ip), vehicle: saline) was 113 % of control, the T/C (dose: 0.4 mg/kg/injection, schedule: Q01DX007 (ip), vehicle: saline) was 116 % of control and the T/C (dose: 0.8 mg/kg/injection, schedule: Q01DX007 (ip), vehicle: saline) was 99 % of control. For the same compound, the T/C (dose: 1.6 mg/kg/injection, schedule: Q01DX007 (ip), vehicle: saline) was 94 % of control, the T/C (dose: 6.4 mg/kg/injection, schedule: Q01DX007 (ip), vehicle: saline) was 79 % of control and the T/C (dose: 12.0 mg/kg/injection, schedule: Q01DX007 (ip), vehicle: saline) was 88 % of control. For the same compound, the T/C (dose: 12.8 mg/kg/injection, schedule: Q01DX007 (ip), vehicle: saline) was 64 % of control and the T/C (dose: 24.0 mg/kg/injection, schedule: Q01DX007 (ip), vehicle: saline) was 61 % of control.

With `COc1ccc(C(=O)/C(Br)=C/C(=O)O)cc1` the T/C (dose: 6.25 mg/kg/injection, schedule: Q01DX007 (ip), vehicle: water) was 99 % of control, the T/C (dose: 12.5 mg/kg/injection, schedule: Q01DX007 (ip), vehicle: water) was 82 % of control and the T/C (dose: 25.0 mg/kg/injection, schedule: Q01DX007 (ip), vehicle: water) was 108 % of control.

With `COc1cc2c(c(OC3OC(CO)C(O)C(O)C3O)c1)C(=O)CC(c1ccc(O)cc1)O2` (stereo unspecified) the T/C (dose: 100.0 mg/kg/injection, schedule: Q01DX007 (ip), vehicle: other) was 90 % of control and the T/C (dose: 200.0 mg/kg/injection, schedule: Q01DX007 (ip), vehicle: other) was 71 % of control.

In the case of `O=C1Cc2ccccc2C(=O)N1`, the T/C (dose: 15.0 mg/kg/injection, schedule: Q#A X014 (ip), vehicle: carboxymethylcellulose (CMC)) is reported as 84 % of control and the T/C (dose: 30.0 mg/kg/injection, schedule: Q#A X014 (ip), vehicle: carboxymethylcellulose (CMC)) is reported as 79 % of control.
